Key:
[1] = system: primary neurons, K174Q tau; test: Tau-lowering effect of salicylate on K174Q mutant tau in primary neurons; format: cell-based; details: K174 mutated to glutamine
[2] = system: HEK293 cells overexpressing hTau (WT) and p300; test: Ac-tau and p-tau Western blot in HEK293 cells treated with salicylate; format: cell-based, human; details: 0, 5, 10 mM salicylate for 24 hr
Protocol: To examine the effects of salicylate treatment on tau acetylation and phosphorylation, HEK293 cells overexpressing hTau (WT) and p300 were treated with sodium salicylate (SS).
FIGS. 1A-1D. Salicylate inhibits p300 and reduces ac-tau and p-tau in vitro (FIG. 1A) HEK293 cells overexpressing wild-type human tau were treated with 0, 5, 10 mM salicylate for 24 hr. Representative Western blot of four experiments. (FIG. 1B) Quantification of ac-tau and p-tau levels in HEK293 cells treated with salicylate. ac-tau/t-tau, p-tau/t-tau in non-treated cells were set as 1. n=4. **, p<0.01, ***, p<0.001 (two-tails unpaired t-test). Error bar, S.E.M. (FIG. 1C) Rat primary cortical neurons infected with lenti-hTau (WT) were treated with 0, 5, or 10 mM salicylate for 24 hr. Representative Western blot of four experiments. (FIG. 1D) Quantification of ac-tau, p-tau and p300 levels in primary neurons treated with salicylate. ac-tau/t-tau, p-tau/t-tau and p300/GAPDH in non-treated cells were set as 1. n=4. *, p<0.05, **, p<0.01, ***, p<0.001 (two-tails unpaired t-test). Error bar, S.E.M.

[3] = target: p300 (Homo sapiens, UniProt Q09472); details: recently identified; cited from earlier work
[4] = system: PS19 mice; test: Hippocampal volume and NeuN-positive cell number; format: in vivo, mouse; details: 10 months old PS19 mice vs wild-type littermates
From the text: The neurodegeneration phenotype of PS19 mice was examined by measuring hippocampal volume and NeuN-positive cell number. […] (FIG. 4A) 10 months old PS19 mice have significant hippocampal volume loss compared to wild-type, which is absent in SSA-treated group. Left. Representative nissl staining of hippocampus from vehicle-treated WT, vehicle-treated PS19 and SSA-treated PS19 mice. ***, p<0.001, *, p<0.05 (two-tails unpaired t-test). Error bar, S.E.M. Scale bar, 500 um. (FIG. 4B) 10 months old PS19 mice have significant reduction of NeuN-positive cells compared to wild-type, which is absent in SSA-treated group. Left. Representative NeuN staining of hippocampus from vehicle-treated WT, vehicle-treated PS19 and SSA-treated PS19 mice. **, p<0.01 (two-tails unpaired t-test). Error bar, S.E.M. (FIG. 4C) NeuN number positively correlates with time spent in target quadrant in dry maze. p=0.0142 (linear regression).

[5] = PK analyses of salsalate (SSA) and salicylic acid (SA) in brain and plasma; format: in vivo, C57B6 mice; details: oral gavage, single bolus dose, mice
Protocol: SSA was administered to C57B6 mice via oral gavage as a single bolus dose. Mice were sacrificed at predetermined time points and plasma and brain tissue samples were harvested for analysis by PPL labs (Redwood City, Calif., USA). SSA and its metabolite SA were measured simultaneously using oxopropanoyloxy benzoic acid as an internal standard solution. To extract SSA/SA from brain, 200 μl of 50% Acetonitrile in 0.1% formic acid was added to 30-50 mg of cortical tissue, followed by homogenization and vortexing. After addition of 200 μl of the internal standard solution, the samples were centrifuged and the supernatants were transferred for injection. To measure SSA/SA in the plasma, 10 μl of plasma samples were mixed with 90 μl H2O and 100 μl of Internal Standard Solution, followed by centrifugation and injection. HPLC was performed using a C18 column following a gradient program (10% to 90% acetonitrile over a period of 6 min) with a flow rate of 0.4 ml/min. The injection volume was ˜5 μl. Mass spectrometry analyses were performed on 3200 Q TRAP system (AB SCIEX, Framingham, Mass. USA.) using an MQL algorithm.

[6] = system: PS19 mice; test: NFT analysis by Gallyas silver staining; format: in vivo, mouse; details: female and male cohorts, age 10-11 months
From the text: FIGS. 12A and 12B provide silver staining results in neurites from neocortex and hippocampal regions for mice treated with SSA. Analysis of NFTs by Gallyas silver staining (FIG. 12A) and quantification of silver-positive cells in neurites from neocortex and hippocampal regions CA1 and CA3 (FIG. 12B) in vehicle-treated NTG mice and PS19 mice treated with vehicle or SSA. Scale bar, 250 μm (c, top); 25 μm (c, middle and bottom); n=8 mice (age 10-11 months) per genotype per treatment; *P<0.05, unpaired Student's t-test. Values are mean±s.e.m.
Prominent NFTs and dystrophic neurites, positive for Gallyas silver staining, were detected throughout the forebrains in PS19 mice (FIG. 12A).

[7] = system: PS19 mice; test: Fixed Location Dry Maze; format: in vivo, mouse; details: 225 mg/kg oral gavage for 8 weeks; 7-8 month old PS19 mice
Protocol: For SSA treatment experiments, only female PS19 mice obtained from Jackson Laboratory were used. The mice were housed in a conventional facility at Stanford University (Palo Alto, Calif.<USA) with a 12-h light/dark reverse cycle and ad libitum access to food and water. All behavior experiments of PS19 mice were performed during daylight hours and carried out under Stanford University School of Medicine, Institutional Animal Care and Use Committee-approved guidelines.
The Fixed Location Dry Maze is also called DMP dry maze (Faizi, M., et al. Brain Behav 2, 142-154 (2012)). Experiments were performed at an animal facility at Stanford University (Palo Alto, Calif.). Mice were housed at a standard temperature (22±1° C.), in a reverse light-controlled environment (lights off from 8:30 am to 8:30 pm) with ad libitum access to food and water. Animals are group-housed with minimal enrichment such as shelter (paper towel tubes and nestlets). The experimenter remained blinded to the experimental groups throughout the entire study. […] The subjects were monitored by a video tracking system directly above maze, and the parameters were measured using the computer software Ethovision. […] Time in each quadrant was recorded and memory was assessed by the time spent in the target quadrant versus the other three quadrants. […]

[8] = system: AAV-K174Q-injected mice; test: SSA treatment of AAV-K174Q-injected mice; format: in vivo, mouse
From the text: FIG. 8 provides (Left) an immunoblot analysis of ac-H2AK5, H2A, p-tau (AT8 and PHF-1), t-tau (HT7) and GAPDH in mice infected with AAV-K174Q and treated with SSA or vehicle; and (Right) a graph depicting the results of a quantification of ac-H2AK5 and H2A. n=11 (vehicle) or 10 (SSA) mice; *P<0.05, unpaired Student's t-test; values are mean±s.e.m.
ELISA analysis of K174Q tau after SSA treatment. n=11 (vehicle) or 10 (SSA) mice; ns, not significant; P=0.3647; unpaired Student's t-test; values are mean±s.e.m.
FIG. 10 provides graphs showing that levels of PHF1-positive p-tau relative to t-tau, or AT8-positive p-tau normalized by t-tau or GAPDH, were not affected by SSA treatment. Levels of PHF-1-positive p-tau normalized to HT7 (left) or AT8-positive p-tau normalized to HT7 (middle) or GAPDH (right) after SSA treatment. n=11 (vehicle) or 10 (SSA) mice; ns, not significant, unpaired Student's t-test. Values are mean±s.e.m.
Nissl staining (left) and hippocampal volume (right) in mice expressing K174Q tau after SSA treatment. Scale bars, 500 μm; n=11 (vehicle) or 10 (SSA) mice; ns, not significant, unpaired Student's t-test. Values are mean±s.e.m.
For AAV-Tau (adeno-associated virus encoding Tau) injection experiments, only male mice were purchased from Jackson Laboratory with the same age and genetic background (C57BL/6) and used for all the experiments. The mice were housed in a pathogen-free barrier facility at UCSF with a 12-h light/dark cycle and ad libitum access to food and water. All behavior experiments were performed during daylight hours. All animal procedures were carried out under University of California, San Francisco, Institutional Animal Care and Use Committee-approved guidelines.
To determine if SSA's beneficial effects involve inhibition of ac-K174 in vivo. Two-month after injecting with AAV-K174Q, mice were treated with SSA daily as previously performed in PS19 mice. Ac-H2AK5 levels were reduced in the SSA-treated group, confirming inhibition of p300 by SSA (FIG. 8). […] Levels of PHF1-positive p-tau relative to t-tau, or AT8-positive p-tau normalized by t-tau or GAPDH, were also not affected by SSA treatment (FIG. 10).

[9] = system: PS19 mice; test: Western blot of ac-tau, p-tau, t-tau, p300 and ac-H2A in hippocampal/brain lysate; format: in vivo, mouse
From the text: The levels of ac-tau and phospho-tau in the hippocampal lysate of PS19 mice were examined (FIG. 5A).
Salsalate treatment in PS19 mice inhibits p300 activity and reduces tau acetylation. (FIG. 5A) Representative Western blot showing levels of ac-tau, p-tau, t-tau and GAPDH in brain lysate of PS19 mice treated with salsalate (SSA) or vehicle (veh). Wild-type (WT) littermates treated with vehicle and tau knockout (KO) mice were included as controls. (FIG. 5B) Quantification of ac-tau and p-tau levels in brain lysate of PS19 mice treated with vehicle or salsalate. ac-tau/t-tau and p-tau/t-tau in vehicle-treated group were set as 1. n=8. **, p<0.01 (two-tails unpaired t-test). Error bar, S.E.M. (FIG. 5C) Representative Western blot showing levels of p300, ac-H2A(K5), H2A and GAPDH in brain lysate of PS19 mice treated with salsalate (SSA) or vehicle (veh). (FIG. 5D) Quantification of p300 and ac-H2A levels in brain lysate of PS19 mice treated with vehicle or salsalate. p300/GAPDH and ac-H2A/H2A in vehicle-treated group were set as 1. n=8. *, p<0.05 (two-tails unpaired t-test). Error bar, S.E.M.

[10] = AAV-K174Q-injected mice, vs vehicle
[11] = brain lysate of PS19 mice, vs vehicle
[12] = hippocampal lysate of PS19 mice, vs vehicle-treated group

Chain of p300 (Q09472 whole entry, species assumed): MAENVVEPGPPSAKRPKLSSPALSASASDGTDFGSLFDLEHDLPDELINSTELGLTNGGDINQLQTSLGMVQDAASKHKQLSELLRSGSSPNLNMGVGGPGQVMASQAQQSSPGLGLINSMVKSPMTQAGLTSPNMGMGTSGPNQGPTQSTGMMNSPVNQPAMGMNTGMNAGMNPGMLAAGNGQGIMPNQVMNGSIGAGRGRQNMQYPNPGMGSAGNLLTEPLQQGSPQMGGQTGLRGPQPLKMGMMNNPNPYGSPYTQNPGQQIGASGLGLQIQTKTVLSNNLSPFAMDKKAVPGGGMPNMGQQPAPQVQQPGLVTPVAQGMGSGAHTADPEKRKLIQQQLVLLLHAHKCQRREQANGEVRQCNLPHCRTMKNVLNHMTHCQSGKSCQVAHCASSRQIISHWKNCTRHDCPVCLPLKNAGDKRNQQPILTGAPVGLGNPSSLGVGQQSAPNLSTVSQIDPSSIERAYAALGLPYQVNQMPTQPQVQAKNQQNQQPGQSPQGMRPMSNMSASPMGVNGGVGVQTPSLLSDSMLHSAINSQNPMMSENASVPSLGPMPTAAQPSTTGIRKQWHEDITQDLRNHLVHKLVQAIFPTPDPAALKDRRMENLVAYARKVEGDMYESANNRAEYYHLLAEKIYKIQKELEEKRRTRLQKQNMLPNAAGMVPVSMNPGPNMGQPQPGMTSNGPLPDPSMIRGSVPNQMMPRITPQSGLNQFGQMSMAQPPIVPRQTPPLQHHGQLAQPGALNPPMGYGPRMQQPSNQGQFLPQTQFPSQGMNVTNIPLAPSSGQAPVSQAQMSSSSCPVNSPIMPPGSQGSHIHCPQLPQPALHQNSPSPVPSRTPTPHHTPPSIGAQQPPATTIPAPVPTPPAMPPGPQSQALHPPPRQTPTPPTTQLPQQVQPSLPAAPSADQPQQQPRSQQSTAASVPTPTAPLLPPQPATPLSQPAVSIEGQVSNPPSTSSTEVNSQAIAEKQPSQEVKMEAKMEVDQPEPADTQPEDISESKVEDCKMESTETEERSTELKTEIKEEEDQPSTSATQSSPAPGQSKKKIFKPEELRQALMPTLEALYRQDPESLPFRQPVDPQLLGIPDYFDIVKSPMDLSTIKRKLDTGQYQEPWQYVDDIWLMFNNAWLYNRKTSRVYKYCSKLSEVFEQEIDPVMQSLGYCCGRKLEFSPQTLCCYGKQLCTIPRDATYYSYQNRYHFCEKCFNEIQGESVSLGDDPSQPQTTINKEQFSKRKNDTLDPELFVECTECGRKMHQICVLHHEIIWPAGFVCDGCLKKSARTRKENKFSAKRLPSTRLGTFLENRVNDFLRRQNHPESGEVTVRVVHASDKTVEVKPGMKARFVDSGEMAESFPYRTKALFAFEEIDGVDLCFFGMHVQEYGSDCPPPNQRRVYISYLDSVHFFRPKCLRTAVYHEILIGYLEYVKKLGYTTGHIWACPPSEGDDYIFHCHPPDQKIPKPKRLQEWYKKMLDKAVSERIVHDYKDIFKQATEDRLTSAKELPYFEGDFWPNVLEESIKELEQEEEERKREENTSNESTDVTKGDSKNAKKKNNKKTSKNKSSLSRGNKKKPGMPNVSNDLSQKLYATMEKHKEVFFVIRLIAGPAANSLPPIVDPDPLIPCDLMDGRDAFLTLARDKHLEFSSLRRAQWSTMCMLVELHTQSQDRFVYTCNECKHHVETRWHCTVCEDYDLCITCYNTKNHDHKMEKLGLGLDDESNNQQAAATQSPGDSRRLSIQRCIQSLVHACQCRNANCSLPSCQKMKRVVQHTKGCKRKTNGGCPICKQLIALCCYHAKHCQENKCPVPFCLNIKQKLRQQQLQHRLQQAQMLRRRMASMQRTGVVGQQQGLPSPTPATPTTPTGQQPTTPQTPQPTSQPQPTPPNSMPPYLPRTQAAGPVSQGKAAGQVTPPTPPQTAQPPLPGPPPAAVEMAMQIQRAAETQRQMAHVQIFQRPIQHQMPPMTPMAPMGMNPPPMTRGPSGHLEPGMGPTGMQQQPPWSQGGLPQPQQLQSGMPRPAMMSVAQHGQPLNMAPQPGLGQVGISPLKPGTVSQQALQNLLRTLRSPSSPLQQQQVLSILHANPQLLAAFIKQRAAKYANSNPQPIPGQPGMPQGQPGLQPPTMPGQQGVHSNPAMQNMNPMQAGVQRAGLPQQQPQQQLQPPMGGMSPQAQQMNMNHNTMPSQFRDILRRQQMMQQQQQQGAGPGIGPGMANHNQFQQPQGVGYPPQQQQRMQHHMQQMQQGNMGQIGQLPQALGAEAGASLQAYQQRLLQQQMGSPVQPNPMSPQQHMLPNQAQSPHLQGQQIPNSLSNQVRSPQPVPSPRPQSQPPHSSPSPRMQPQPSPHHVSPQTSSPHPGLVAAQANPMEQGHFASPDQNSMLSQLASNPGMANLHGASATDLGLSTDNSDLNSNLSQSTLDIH

O=C(O)c1ccccc1O [salicylate, Salicylic acid]
Tau-lowering effect with K174Q mutation [1]: abolished the tau-lowering effects
AT8-positive phospho-tau level (p-tau/t-tau) [2]: reduced
Ac-tau level (ac-tau/t-tau) [2]: significantly reduced by salicylate in a dose-dependent manner
p300 inhibition [3]: p300 inhibitor

O=C(Oc1ccccc1C(=O)O)c1ccccc1O [salsalate]
Hippocampal volume [4]: did not show any hippocampal volume loss
Number of NeuN-positive cells in hippocampal section [4]: did not show any significant difference compared to wild-type
Brain penetration [5]: readily penetrates into the brain
Number of Gallyas silver-positive neurons and neurites in cortex and hippocampus [6]: reduced the number of Gallyas silver-positive neurons and neurites
Memory retention in probe trial (time in target vs non-target quadrant) [7]: significantly rescued the deficit
Spatial learning (learning curve) [7]: did not rescue the learning deficit
Ac-H2AK5 levels ([8]; AAV-K174Q-injected mice, SSA daily, vs vehicle): reduced
AT8-positive p-tau normalized by t-tau or GAPDH [8, 10]: not affected
Hippocampal atrophy (hippocampal volume) [8, 10]: failed to prevent/reduce hippocampal atrophy
PHF1-positive p-tau relative to t-tau [8, 10]: not affected
Levels of t-tau (ELISA) ([8]; K174Q injected mice, vs vehicle treated controls): failed to reduce levels of t-tau
t-tau levels in PS19 mice ([9]; PS19 mice): tau-lowering effects
p300 HAT activity as measured by levels of histone acetylation (ac-H2A/H2A) [9, 11]: significant reduction of p300 HAT activity
p300 levels (p300/GAPDH) [9, 11]: trend of reduction in p300 levels
AT-8 positive phospho-tau levels (p-tau/t-tau) [9, 12]: trend of reduction in AT-8 positive phospho-tau levels, although the difference was not significant
ac-tau levels (ac-tau/t-tau) [9, 12]: significantly lower ac-tau levels
